Data set [1] has as its system A549 Cell line (Lung Cancer Cell line). Description: Cell proliferation assay (MTT), in-vitro anticancer activity against A549 cell line. As to conditions: Homo sapiens, 72 h; for viability at 0.01 µM: A549, 0.01 μM; for viability at 0.1 µM: A549, 0.1 μM; for viability at 2.5 µM: A549, 2.5 μM; for viability at 5 µM: A549, 5 μM; for viability at 10 µM: A549, 10 μM. The class given is cell-based. On the procedure: (§1) Each cell line was plated in 96-well microtiter plates (10,000 cells per well), and serial dilutions of indicated compounds were added. At the end of the incubation period (72 h at 37° C.), cell viability was determined by a tetrazolium dye, MTT (3-(4,5-dimethylthiazol-2-yl)-2,5-diphenyl tetrazolium bromide) (Promega, USA). The formazan crystals were dissolved in DMSO, and the absorbance at 600 nm was recorded using an ELISA plate reader. IC50 values were calculated using nonlinear regression and defined as the concentration needed for a 50% reduction in absorbance of treated versus untreated control cells.
In-Vitro Anticancer Activity Against A549 Cell Line (Lung Cancer Cell Line) (Adenocarcinomic Human Alveolar Basal Epithelial Cells)

The subject of data set [2] is U87MG Cell line (glioblastoma cell line). The experiment in a line: Cell proliferation assay (MTT), in-vitro anticancer activity against U87MG cell line. As to conditions: Homo sapiens, U-87 MG, 72 h. Format: cell-based. Here is the method: as §1
In-Vitro Anticancer Activity Against U87MG Cell Line (Glioblastoma Cell Line)

The nature of data set [3]: Log P (Table 4). Format: physicochemical. As to conditions: method not stated.

Compound `Nc1nc(Nc2ccccc2)sc1-c1cc(=O)c2ccccc2o1` [Compound S1-M1, 2-(4-amino-2-(phenylamino)thiazol-5-yl)-4H-chromen-4-one] registered a melting point of 232 to 234 °C. In addition, in data set [1], the viability at 0.01 µM was found to be 100%, the viability at 0.1 µM is 90.5%, the viability at 2.5 µM turned out to be 82.5% and the viability at 5 µM was 75.5%. The same compound registered a viability at 10 µM in data set [1] of 60.5%. Also, in data set [2], the viability at 0.01 µM is 88%, the viability at 0.1 µM came to 79.5%, the viability at 2.5 µM is 70.5% and the viability at 5 µM was found to be 62.5%. Moreover, the viability at 10 µM in data set [2] was found to be 51.5%. In addition, in data set [3], the lipophilicity (logP) came out at 3.2.
Compound `Cc1ccc(Nc2nc(N)c(-c3cc(=O)c4ccc(O)cc4o3)s2)cc1` [Compound S1-M2, 2-(2-(p-tolylamino)-4-aminothiazol-5-yl)-7-hydroxy-4H-chromen-4-one] gave a melting point of 244 to 246 °C. In data set [1], this compound came in with a viability at 0.01 µM of 56.1%, a viability at 0.1 µM of 41.1%, a viability at 2.5 µM of 31.1% and a viability at 5 µM of 24.1%. This compound yielded a viability at 10 µM in data set [1] of 20.9%. In data set [2], this compound came in with a viability at 0.01 µM of 41.1%, a viability at 0.1 µM of 34.4%, a viability at 2.5 µM of 28.1% and a viability at 5 µM of 19.6%. Also, the viability at 10 µM in data set [2] is 14.9%. Besides, the lipophilicity (logP) in data set [3] is 1.9.
The compound `Cc1ccccc1Nc1nc(N)c(-c2cc(=O)c3ccc(O)cc3o2)s1` [Compound S1-M3, 2-(2-(o-tolylamino)-4-aminothiazol-5-yl)-7-hydroxy-4H-chromen-4-one] showed a melting point of 268 to 270 °C. In data set [1], this compound showed a viability at 0.01 µM of 97.6%, a viability at 0.1 µM of 91.4%, a viability at 2.5 µM of 85.8% and a viability at 5 µM of 74.8%. In data set [1], the viability at 10 µM was 55.8%. Moreover, in data set [2], the viability at 0.01 µM stood at 82.6%, the viability at 0.1 µM came out at 74.4%, the viability at 2.5 µM worked out at 68.8% and the viability at 5 µM amounted to 60.8%. For the same compound, the viability at 10 µM in data set [2] worked out at 54.8%. For the same compound, the logP in data set [3] was determined as 2.01.
Compound `Cc1cccc(C)c1Nc1nc(N)c(-c2cc(=O)c3ccc(O)cc3o2)s1` [Compound S1-M4, 2-(2-(2,6-dimethylphenylamino)-4-aminothiazol-5-yl)-7-hydroxy-4H-chromen-4-one] gave a melting point of 224 to 226 °C. In data set [1], the viability at 0.01 µM is 88.6%, the viability at 0.1 µM was 85.8%, the viability at 2.5 µM was determined as 77.6% and the viability at 5 µM was 68.6%. In data set [1], this compound showed a viability at 10 µM of 61.6%. In data set [2], this compound gave a viability at 0.01 µM of 80.6%, a viability at 0.1 µM of 71.8%, a viability at 2.5 µM of 65.6% and a viability at 5 µM of 58.6%. The compound also had a viability at 10 µM in data set [2] of 50.6%. This compound had a lipophilicity (logP) in data set [3] of 3.42.
Compound `Nc1nc(Nc2c(Cl)cccc2Cl)sc1-c1cc(=O)c2ccc(O)cc2o1` [Compound S1-M5, 2-(2-(2,6-dichlorophenylamino)-4-aminothiazol-5-yl)-7-hydroxy-4H-chromen-4-one] showed a melting point of 260 to 262 °C. Besides, in data set [1], the viability at 0.01 µM is 98.8%, the viability at 0.1 µM was determined as 91.6%, the viability at 2.5 µM was found to be 83.9% and the viability at 5 µM amounted to 71.9%. The same compound came in with a viability at 10 µM in data set [1] of 65.9%. In data set [2], this compound gave a viability at 0.01 µM of 84.8%, a viability at 0.1 µM of 77.6%, a viability at 2.5 µM of 69.9% and a viability at 5 µM of 60.9%. For the same compound, the viability at 10 µM in data set [2] came to 52.9%. For the same compound, the log partition coefficient (logP) in data set [3] stood at 3.02.
In turn, `COc1ccc(Nc2nc(N)c(-c3cc(=O)c4ccc(O)cc4o3)s2)cc1` [Compound S1-M6, 2-(2-(4-methoxyphenylamino)-4-aminothiazol-5-yl)-7-hydroxy-4H-chromen-4-one] returned a melting point of 220 to 222 °C. Moreover, in data set [1], the viability at 0.01 µM turned out to be 53.1%, the viability at 0.1 µM was determined as 45.1%, the viability at 2.5 µM worked out at 36.7% and the viability at 5 µM was 27.9%. Moreover, the viability at 10 µM in data set [1] worked out at 19.4%. In data set [2], this compound had a viability at 0.01 µM of 48.7%, a viability at 0.1 µM of 35.2%, a viability at 2.5 µM of 25.8% and a viability at 5 µM of 19.9%. Moreover, the viability at 10 µM in data set [2] amounted to 12.9%. The compound further had a log partition coefficient (logP) in data set [3] of 1.92.
Compound `COc1ccccc1Nc1nc(N)c(-c2cc(=O)c3ccc(O)cc3o2)s1` [Compound S1-M7, 2-(2-(2-methoxyphenylamino)-4-aminothiazol-5-yl)-7-hydroxy-4H-chromen-4-one] registered a melting point of 210 to 212 °C. Further, in data set [1], the viability at 0.01 µM turned out to be 96.1%, the viability at 0.1 µM turned out to be 94.9%, the viability at 2.5 µM is 84.8% and the viability at 5 µM came to 74.8%. For the same compound, in data set [1], the viability at 10 µM worked out at 66.8%. Besides, in data set [2], the viability at 0.01 µM amounted to 85.1%, the viability at 0.1 µM is 75.9%, the viability at 2.5 µM is 65.8% and the viability at 5 µM was found to be 57.8%. The compound also came in with a viability at 10 µM in data set [2] of 45.8%. The same compound gave a logP in data set [3] of 2.11.
For the compound `Nc1nc(Nc2ccccc2)sc1-c1cc(=O)c2ccc(O)cc2o1` [Compound S1-M8, 2-(4-amino-2-(phenylamino)thiazol-5-yl)-7-hydroxy-4H-chromen-4-one], the melting point is 218 to 220 °C. In data set [1], this compound showed a viability at 0.01 µM of 93.3%, a viability at 0.1 µM of 87.1%, a viability at 2.5 µM of 75% and a viability at 5 µM of 64%. In data set [1], this compound yielded a viability at 10 µM of 54%. In addition, in data set [2], the viability at 0.01 µM amounted to 88.3%, the viability at 0.1 µM was determined as 76.1%, the viability at 2.5 µM was determined as 68% and the viability at 5 µM turned out to be 59%. The compound further returned a viability at 10 µM in data set [2] of 51.4%. Further, the log partition coefficient (logP) in data set [3] was 3.32.
`Cc1ccc(Nc2nc(N)c(-c3cc(=O)c4ccccc4o3)s2)cc1` [Compound S1-M9, 2-(2-(p-tolylamino)-4-aminothiazol-5-yl)-4H-chromen-4-one]: the melting point is 200 to 202 °C. In data set [1], the viability at 0.01 µM turned out to be 100%, the viability at 0.1 µM stood at 91.8%, the viability at 2.5 µM was found to be 87.3% and the viability at 5 µM was 77.3%. The same compound came in with a viability at 10 µM in data set [1] of 67.3%. In data set [2], this compound yielded a viability at 0.01 µM of 87%, a viability at 0.1 µM of 78.8%, a viability at 2.5 µM of 70.3% and a viability at 5 µM of 62.3%. In addition, the viability at 10 µM in data set [2] was 55.6%. Moreover, the logP in data set [3] was 1.9.
On to `COc1cc2ncnc(Nc3ccc(F)c(Cl)c3)c2cc1OCCCN1CCOCC1` [Gefitinib, gefitinib, reference compound], for which, in data set [1], the viability at 0.01 µM turned out to be 55.2%, the viability at 0.1 µM worked out at 43.7%, the viability at 2.5 µM worked out at 35.3% and the viability at 5 µM came out at 29.3%. For the same compound, the viability at 10 µM in data set [1] is 20.3%. Also, in data set [2], the viability at 0.01 µM was 55.2%, the viability at 0.1 µM worked out at 43.7%, the viability at 2.5 µM came out at 35.3% and the viability at 5 µM is 29.3%. Further, the viability at 10 µM in data set [2] came to 20.3%.

As a reminder, the viability is a read-out of living cells in per cent, often relative to untreated cells. A higher viability goes with better survival. For orientation: melting point means the temperature, or range, at which the solid turns liquid. The logP is the decadic logarithm of the partition coefficient of the neutral form, usually between octanol and water. Higher therefore signals higher lipophilicity.

For the origin of these results see patent publication US10221165B2, “Flavone based EGFR inhibitors and process for preparation thereof” (Council of Scientific and Industrial Research, priority 2015, dated 2019).
